According to ChEMBL document CHEMBL1201862, “PubChem BioAssay data set” (2004):
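Where inhibition never reached the appropriate level, the endpoint shown equals the highest concentration tested. Otherwise, values were interpolated linearly from a five-concentration, 48-hour dose response in 96-well plates. GI50 is the concentration that inhibits growth by half.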 Activity calls are given as the source filed them. Cut-off read from the data, not from the text of the source: active = GI50 up to about 1.1 µM and inactive = higher.

Key:
Assay in all cases: NCI tumour cell line growth inhibition, 48 h
[1] = test system: OVCAR-3
[2] = test system: HT-29
[3] = test system: CCRF-CEM
[4] = test system: K562
[5] = test system: TK-10
[6] = test system: LOX IMVI
[7] = test system: U-251
[8] = test system: M14
[9] = test system: OVCAR-4
[10] = test system: CAKI-1
[11] = test system: PC-3
[12] = test system: SF-539
[13] = test system: ACHN
[14] = test system: KM12
[15] = test system: COLO 205
[16] = test system: T47D
[17] = test system: EKVX
[18] = test system: SNB-75
[19] = test system: SW-620
[20] = test system: Hs-578T
[21] = test system: DU-145
[22] = test system: NCI-H522
[23] = test system: 786-0
[24] = test system: HCC 2998
[25] = test system: IGROV-1
[26] = test system: SN12C
[27] = test system: SF-295
[28] = test system: HCT-116
[29] = test system: UACC-257
[30] = test system: HOP-92
[31] = test system: A498
[32] = test system: SF-268
[33] = test system: MCF7
[34] = test system: HCT-15
[35] = test system: RPMI-8226
[36] = test system: MDA-MB-231
[37] = test system: HL-60
[38] = test system: SNB-19
[39] = test system: SK-MEL-2
[40] = test system: OVCAR-8
[41] = test system: SK-OV-3
[42] = test system: OVCAR-5
[43] = test system: MOLT-4
[44] = test system: NCI-H23
[45] = test system: UACC-62
[46] = test system: A549
[47] = test system: MDA-MB-435
[48] = test system: NCI/ADR-RES
[49] = test system: Malme-3M
[50] = test system: SK-MEL-28
[51] = test system: NCI-H460
[52] = test system: SK-MEL-5
[53] = test system: HOP-62
[54] = test system: UO-31
[55] = test system: RXF 393

Q: What does the source list for `CCC1C(=O)C[C@H]2[C@@H]3C(O)CC4=CC(=O)CC[C@]4(C)[C@H]3CC[C@]12C` (stereo not given in full)?
A: GI50 [1]: > 50 µM (inactive); GI50 [2]: > 50 µM (inactive); GI50 [3]: > 50 µM (inactive); GI50 [4]: > 50 µM (inactive); GI50 [5]: > 50 µM (inactive); GI50 [6]: > 50 µM (inactive); GI50 [7]: > 50 µM (inactive); GI50 [8]: > 50 µM (inactive); GI50 [9]: > 50 µM (inactive); GI50 [10]: > 50 µM (inactive); GI50 [11]: > 50 µM (inactive); GI50 [12]: > 50 µM (inactive); GI50 [13]: > 50 µM (inactive); GI50 [14]: > 50 µM (inactive); GI50 [15]: > 50 µM (inactive); GI50 [16]: > 50 µM (inactive); GI50 [17]: > 50 µM (inactive); GI50 [18]: > 50 µM (inactive); GI50 [19]: > 50 µM (inactive); GI50 [20]: > 50 µM (inactive); GI50 [21]: > 50 µM (inactive); GI50 [22]: > 50 µM (inactive); GI50 [23]: > 50 µM (inactive); GI50 [24]: > 50 µM (inactive); GI50 [25]: > 50 µM (inactive); GI50 [26]: > 50 µM (inactive); GI50 [27]: > 50 µM (inactive); GI50 [28]: > 50 µM (inactive); GI50 [29]: > 50 µM (inactive); GI50 [30]: > 50 µM (inactive); GI50 [31]: > 50 µM (inactive); GI50 [32]: > 50 µM (inactive); GI50 [33]: > 50 µM (inactive); GI50 [34]: > 50 µM; GI50 [35]: > 50 µM (inactive); GI50 [36]: > 50 µM (inactive); GI50 [37]: > 50 µM (inactive); GI50 [38]: > 50 µM (inactive); GI50 [39]: > 50 µM (inactive); GI50 [40]: > 50 µM (inactive); GI50 [41]: > 50 µM (inactive); GI50 [42]: > 50 µM (inactive); GI50 [43]: > 50 µM (inactive); GI50 [44]: > 50 µM (inactive); GI50 [45]: > 50 µM (inactive); GI50 [46]: > 50 µM (inactive); GI50 [47]: > 50 µM (inactive); GI50 [48]: > 50 µM (inactive); GI50 [49]: 25.8 µM (inactive); GI50 [50]: > 50 µM (inactive); GI50 [51]: > 50 µM (inactive); GI50 [52]: > 50 µM (inactive); GI50 [53]: > 50 µM (inactive); GI50 [54]: > 50 µM (inactive)

Q: `Nc1ccc(-c2nn3c(COc4ccc(Cl)cc4)nnc3s2)cc1` was tested. Which GI50 [1] did it give?
A: > 100 µM (inactive)

Q: And the GI50 [2]?
A: > 100 µM (inactive)

Q: And the GI50 [4]?
A: > 100 µM (inactive)

Q: And the GI50 [5]?
A: > 100 µM (inactive)

Q: And the GI50 [6]?
A: > 100 µM (inactive)

Q: What about the GI50 [7] of the same compound?
A: > 100 µM (inactive)

Q: What about the GI50 [8] of the same compound?
A: > 100 µM (inactive)

Q: What about the GI50 [9] of the same compound?
A: > 100 µM (inactive)

Q: And the GI50 [10]?
A: 54.2 µM (inactive)

Q: And the GI50 [11]?
A: 88.7 µM (inactive)

Q: And the GI50 [13]?
A: > 100 µM (inactive)

Q: What about the GI50 [55] of the same compound?
A: 49.3 µM (inactive)

Q: What about the GI50 [15] of the same compound?
A: 74.5 µM (inactive)

Q: What about the GI50 [16] of the same compound?
A: > 100 µM (inactive)

Q: What about the GI50 [17] of the same compound?
A: 86.9 µM (inactive)

Q: What about the GI50 [18] of the same compound?
A: > 100 µM (inactive)

Q: What about the GI50 [19] of the same compound?
A: > 100 µM (inactive)

Q: And the GI50 [20]?
A: 25.3 µM (inactive)

Q: What about the GI50 [21] of the same compound?
A: > 100 µM (inactive)

Q: What about the GI50 [22] of the same compound?
A: 65 µM (inactive)

Q: And the GI50 [23]?
A: > 100 µM (inactive)

Q: What about the GI50 [24] of the same compound?
A: > 100 µM (inactive)

Q: What about the GI50 [25] of the same compound?
A: > 100 µM (inactive)

Q: And the GI50 [26]?
A: > 100 µM (inactive)

Q: And the GI50 [27]?
A: 56.9 µM (inactive)

Q: And the GI50 [29]?
A: > 100 µM (inactive)

Q: What about the GI50 [34] of the same compound?
A: > 100 µM

Q: What about the GI50 [35] of the same compound?
A: 77.6 µM (inactive)

Q: And the GI50 [36]?
A: 87.3 µM (inactive)

Q: What about the GI50 [37] of the same compound?
A: > 100 µM (inactive)

Q: And the GI50 [38]?
A: 88.1 µM (inactive)

Q: What about the GI50 [39] of the same compound?
A: > 100 µM (inactive)

Q: What about the GI50 [40] of the same compound?
A: > 100 µM (inactive)

Q: And the GI50 [41]?
A: > 100 µM (inactive)

Q: What about the GI50 [42] of the same compound?
A: > 100 µM (inactive)

Q: What about the GI50 [43] of the same compound?
A: 51.3 µM (inactive)

Q: What about the GI50 [44] of the same compound?
A: > 100 µM (inactive)

Q: What about the GI50 [45] of the same compound?
A: > 100 µM (inactive)

Q: What about the GI50 [46] of the same compound?
A: > 100 µM (inactive)

Q: What about the GI50 [47] of the same compound?
A: 62.2 µM (inactive)

Q: And the GI50 [48]?
A: > 100 µM (inactive)

Q: And the GI50 [49]?
A: > 100 µM (inactive)

Q: What about the GI50 [50] of the same compound?
A: > 100 µM (inactive)

Q: And the GI50 [51]?
A: 40 µM (inactive)

Q: What about the GI50 [52] of the same compound?
A: > 100 µM (inactive)

Q: What about the GI50 [54] of the same compound?
A: 84.9 µM (inactive)
